Bridge positions count the residues as written; N and C are the ends. Square brackets hold non-standard residues; d marks the D form. Peptide text beside a SMILES is read from it. * marks the point of attachment. 2Nal = N[C@@H](Cc1ccc2ccccc2c1)C(=O)O; Benzoyl(4-F) = O=C(c1ccc(F)cc1)*; Cit = NC(=O)NCCC[C@H](N)C(=O)O
How the values were obtained:
progenitor cells = experiment: In vitro production of colonies, colony-forming cell assay without stromal cells; assay type: cell-based; details: no stromal cells; 4F-benzoyl-TN14003 10-500 ng/ml, G-CSF 10-500 ng/ml
Protocol: In order to evaluate the number of progenitor cells, a colony-forming cell assay was used. Burst forming units erythrocyte (BFU-E), colony forming units granulocyte-macrophage (CFU-GM), colony forming units megakaryocytes (CFU-M), and colony forming units granulocyte-erythrocyte-monocyte-macrophage (CFU-GEMM) were assayed by plating the cells (10^5/ml) in Iscove's-modified Dulbecco's Medium (IMDM) containing 1% methylcellulose, 15% FBS, 1% bovine serum albumin (BSA), and 4F-benzoyl-TN14003 by itself (10-500 ng/ml) or in combination with G-CSF (in concentrations of 10-500 ng/ml).

neutrophils = experiment: Chemotherapy (cyclophosphamide)-induced neutropenia model, neutrophil counts; assay type: in vivo, C57BL/6 mice; details: cyclophosphamide 150 + 100 mg/kg i.p. days 1 and 4, treatment s.c. days 4-7 (4F-benzoyl-TN14003 5 mg/kg)
Protocol: In the chemotherapy-induced neutropenia model, a protocol as previously described was followed (Zuluaga et al., 2006). Briefly, Female C57BL/6 mice were injected intraperitoneally with 150 and 100 mg/kg of Cyclophosphamide (CPM) on days 1 and 4, respectively. Following the treatment with CPM, mice were injected s.c. with either G-CSF […], 4F-benzoyl-TN14003 (5 mg/kg) or their combination on day 4, 5, 6 and 7. Blood samples were drawn from each mouse on day 0 and two hours after G-CSF/4F-benzoyl-TN14003 injections on days 4, 5, 6 and 7. Lysis of the erythrocyte population in the blood samples was done using ACK lysis buffer. The number of neutrophils was determined by FACS after staining the cells with anti-PE-Gr-1 antibody.
Neutropenia was induced in female C57BL/6 mice by administration of a total dose of 250 mg/kg cyclophosphamide (CPM) in two 0.5 mL intraperitoneal injections scheduled at day 1 (150 mg/kg) and day 4 (100 mg/kg). The CPM protocol caused 4 days of neutropenia (from day 4 to day 8). When mice were treated with the combination of G-CSF and 4F-benzoyl-TN14003, a significant number of neutrophils was detected in the blood on day 6, as compared to mice that were treated with CPM only or with G-CSF or 4F-benzoyl-TN14003 alone (FIG. 12).

[1] = test system: granulocytes (GR-1 positive cells); experiment: Granulocyte (GR-1 positive) counts in blood and bone marrow in a chemotherapy model; assay type: in vivo, mice; details: CPM 250 mg/kg total i.p.; 4F-benzoyl-TN14003 5 mg/kg s.c., G-CSF 5 μg/mouse
Protocol: Mice received a total dose of 250 mg/kg cyclophosphamide (CPM) by two 0.25 ml intra-peritoneal injections scheduled at day 0 (150 mg/kg) and day 3 (100 mg/kg). Mice were subcutaneously treated with 0.2 ml of 4F-benzoyl-TN14003 (5 mg/kg) at the indicated time points, as detailed in FIG. 13A. Flow cytometery was used to assess the number of cells in the blood and bone marrow (BM), and distinguish between the different populations. Cells were gated according to forward scatter and side scatter to exclude dead cells and to identify granulocytes (GR-1 positive cells).
Mice received a total dose of 250 mg/kg CPM by two 0.25 ml intra-peritoneal injections scheduled at day 0 (150 mg/kg) and day 3 (100 mg/kg). Mice were subcutaneously treated with 0.2 ml of 4F-benzoyl-TN14003 (5 mg/kg) or G-CSF 5 μg/mouse or the combination of both at the indicated time points as detailed in FIG. 14A. Flow cytometery was used to assess the number of cells in the blood and bone marrow (BM) and distinguish between the different populations. Cells were gated according to forward scatter and side scatter to exclude dead cells and to determine granulocytes (GR-1 positive cells).

[2] = test system: BM cells on stromal cells (14F1.1); experiment: In vitro production of progenitors and mature cells from BM cells seeded on stromal cells (14F1.1); assay type: cell-based
Protocol: More specifically, the number of colonies was assayed by collecting the cells (10^5/plate) 4 days after treatment form the treated and control (untreated) plates, and evaluating the number of progenitor cells using a colony-forming cell assay. Burst forming units erythrocyte (BFU-E), colony forming units granulocyte-macrophage (CFU-GM), colony forming units megakaryocytes (CFU-M), and colony forming units granulocyte-erythrocyte-monocyte-macrophage (CFU-GEMM) were assayed by plating the cells in Iscove's-modified Dulbecco's Medium (IMDM) containing 1% methylcellulose, 15% FBS, 1% bovine serum albumin (BSA), 3 U/mL rh EPO, […] 2-mercaptoethanol, 2 mM L-glutamine, 50 ng/mL rmSCF, 10 ng/mL rmIL-3, […] rh Insulin, 10 ng/mL rh IL-6, and […] Human Transferrin (Methocult GF M3434; StemCell Technologies Inc.). The cultures were incubated at 37° C. in a humidified atmosphere containing 5% CO2. Seven days later, typical colonies were visually scored by morphologic criteria using a light microscope and the frequency of CFU was calculated. Staining colonies with benzidine dihydrochloride (Sigma, Israel) was used to localize hemoglobin-containing cells.

[3] = test system: hematopoietic progenitor cells (HPCs); experiment: Mobilization of hematopoietic progenitor cells to the blood, colony-forming cell assay; assay type: in vivo, C57BL/6 mice
[4] = 5 mg/kg s.c. 4F-benzoyl-TN14003 or AMD3100, 2 h, G-CSF 2.5 μg s.c. twice a day for 4 days, combination 18 h after last G-CSF
[5] = peak at 5 and 10 mg/kg s.c., 2 h

N=C(N)NCCC[C@H](NC(=O)[C@@H]1CSSC[C@H](NC(=O)[C@H](Cc2ccc3ccccc3c2)NC(=O)[C@H](CCCNC(=N)N)NC(=O)[C@H](CCCNC(=N)N)NC(=O)c2ccc(F)cc2)C(=O)N[C@@H](Cc2ccc(O)cc2)C(=O)N[C@@H](CCCNC(N)=O)C(=O)N[C@@H](CCCCN)C(=O)N[C@H](CCCCN)C(=O)N2CCC[C@H]2C(=O)N[C@@H](Cc2ccc(O)cc2)C(=O)N[C@@H](CCCNC(=N)N)C(=O)N[C@@H](CCCNC(N)=O)C(=O)N1)C(N)=O [4F-benzoyl-TN14003, 4F-benzoly-Arg-Arg-Nal-Cys-Tyr-Cit-Lys-DLys-Pro-Tyr-Arg-Cit-Cys-Arg-NH2] ({Benzoyl(4-F)}-RR[2Nal]CY[Cit]K[dK]PYR[Cit]CR-NH2; disulfide 4-13)
production of colonies in vitro (progenitor cells): did not stimulate the production of colonies in vitro
number of neutrophils in blood as % of the initial number in normal (untreated) mice (neutrophils; day 6): only a mild effect
number of neutrophils in blood as % of the initial number (neutrophils; day 7): not sufficient to elevate neutrophil counts to their normal level
GR-1 positive cells in the blood (flow cytometry) [1]: mobilize GR-1 positive cells to the blood and reduce neutropenia
relative numbers (ratio) of GR-1 positive cells in the blood and BM [1]: release cells from the inhibitory effect of the BM stroma
differentiation and proliferation of BM cells on stromal cells (micrographs) ([2]; representative experiment, FIG. 17E): differentiating and proliferating
production of GR-1 and Ter119 positive cells and progenitors ([2]; stromal cells (14F1.1) seeded with BM cells, 4F-benzoyl-TN14003 10 microgram/ml, G-CSF 100 ng/ml, 4 days): stimulated the production of GR-1 and Ter119 positive cells as well as progenitors
BFU-E in blood, fold elevation of cell counts from control [3, 4]: 26 fold
CFU-GEMM in blood, fold elevation of cell counts from control [3, 4]: 44 fold
Progenitors in blood, fold elevation of cell counts from control [3, 4]: 7.1 fold
number of progenitor cells per 1 ml of blood, fold change from control ([3]; 5 mg/kg s.c., 30 min): 3.2 fold
number of progenitor cells per 1 ml of blood, fold change from control ([3]; 5 mg/kg s.c., 1 hour): 9.5 fold
BFU-E in blood, fold change from control ([3]; 5 mg/kg s.c., 1 h post injection): more than 200 fold
number of progenitor cells per 1 ml of blood, fold change from control ([3]; 5 mg/kg s.c., 2 hours): 13.6 fold
CFU-M in blood, fold change ([3]; 5 mg/kg s.c., 4 h): 4 fold
elevation in the number of progenitor cells in blood ([3]; 5 mg/kg s.c., 24 hours post-injection): almost disappeared
CFU-GM population in blood, fold elevation from control ([3]; 5 mg/kg s.c., after 2 h): 12.5 fold
number of BFU-E in blood, fold elevation from the control level ([3]; 5 and 10 mg/kg s.c., 2 h): more than 110 fold
number of progenitor cells in 1 ml of blood, fold elevation compared to non-treated mice ([3]; 5 or 10 mg/kg s.c., 2 h): ~10 fold
number of CFU-GEMM in blood, fold elevation from the control level [3, 5]: 2.5 fold
number of CFU-GM in blood, fold elevation from the control level [3, 5]: 11.8 fold
number of CFU-M in blood, fold elevation from the control level [3, 5]: 10.4 fold

From patent publication US8455450B2, “Methods for obtaining a therapeutically effective amount of hematopoietic precursor cells and long term engraftment thereof” (Biokine Therapeutics Ltd., priority 2006, dated 2013)
